# “And” between values parts separate entries of the source, which are not always exact repeats. Equal entries are not always repeated.
# Tests used:
# NTSR1 (NTR1) = molecular target: T1, NTSR1 (NTR1) (Homo sapiens, UniProt P30989); test: NTR1 β-Arrestin dose response (DiscoveRx PathHunter, CHO-K1); format: cell-based
# T1 construct: host or cells: CHO-K1
# Procedure: The NTR1 β-Arrestin assays were performed using a PathHunter™ eXpress kit (93-0446E2) which contained the NTSR1 (NTR1) CHO cell line, OCC2 media (30-409), as well as the PathHunter Detection Reagents (93-0446E2). The kit was obtained from DiscoveRx (Fremont, Calif.). The assay employed the same neurotensin 1 peptide as a control as was used in the NTR1 primary assay. The assay was run in 1536-well, white, solid-bottom tissue culture plates (3727) from Corning.
# On day one of the assay, 5 uL of a cell suspension containing 120,000 NTSR1 (NTR1) CHO-K1 cells per mL in OCC2 media is added to each well of a 1536-well assay plate using a Multidrop Combi. The assay plates are then incubated for 48 hours at 37° C., under 5% CO2. Following the two day incubation, a volume of 20, 10, and 5 nL of 10 and 1.2 mM test compounds in DMSO were transferred from source wells to test compound wells in assay plates with a LabCyte Echo to achieve final assay concentrations ranging from 33 to 1.03 uM for each test sample. Test compound wells and control wells were backfilled with DMSO to achieve a final volume of DMSO of 20 nL or a final assay concentration of 0.33%. […] Plates are again centrifuged as previously described then incubated at room temperature for 1 hour before being read on the PerkinElmer using a luminescent protocol.
# [1] = Plasma protein binding, Rapid Equilibrium Device, human plasma; format: in vitro ADME; conditions: human plasma (EDTA), diluted 1:1 with PBS, pH 7.4, Human, read-out: Plasma Protein Binding (% Bound) (converted)
# Procedure: (§1) The extent of compound bound to plasma proteins was measured using the Rapid Equilibrium Device (Pierce Thermo Scientific, Rockford Ill.). The base plate was rinsed with […] followed by 2× washes with ultrapure water and allowed to dry. Human and mouse plasma (BioChemed Services, Winchester Va.) collected in EDTA was allowed to thaw at room temperature and then warmed to 37° C., and diluted 1:1 (v:v) with 1×PBS, pH 7.4, prior to the assay. The compound (1.0 and 10.0 μM final) was added to the chamber containing 300 μl plasma:PBS. Next, 500 μl of dialysis buffer (1×PBS, pH7.4) was added to the buffer chambers of the inserts. The chambers were covered with sealing tape and incubated at 37° C. on an orbital shaker at 300× rpm for 4 hours. After the incubation time, a sample volume of 50 μl from the buffer side, representing the free concentration, and an equivalent sample volume from the plasma side, representing the total concentration, i.e. the free concentration+the concentration of drug bound to protein, were transferred from the dialysis cells to a 96 deep well plate for LCMS analysis. Results reported are the mean of each reaction duplicate, normalized to the internal standard, and expressed as a percent compound bound after the incubation time. The amount of compound in the supernatant was determined by LC/MS/MS and the percent of free and bound compounds were calculated with the following formulas: Percent of free parent compound=(amount of compound in receiver chamber/amount of compound in donor chamber)*100.
# plasma proteins = test: as above; format: in vitro ADME; conditions: species not stated
# Procedure: as §1
# [2] = Plasma stability, mouse plasma; format: in vitro ADME
# Procedure: Plasma stability was determined using previously published methods (Kerns, E. H., and Di, L. 2008. Drug-like Properties: Concepts, Structure Design and Methods. Oxford UK: Elsevier). Compound (1.0 μM) was incubated at 37° C. in human or mouse plasma (from blood of healthy donors collected on EDTA) diluted to 50% (v/v) with pH 7.4 isotonic phosphate buffer. At time 0 min and 180 min, aliquots were collected, added to acetonitrile to quench the reaction and precipitate plasma proteins. These samples were centrifuged and the supernatant analyzed by the LC/MS/MS method described above for the presence of the parental compound.
# [3] = Metabolic stability in human hepatic microsomes; format: in vitro ADME
# Procedure: Hepatic metabolic stability was determined using established protocols (Di, L., Kerns, E. H., Hong, Y., Kleintop, T. A., McConnell, O. J., and Huryn, D. M. 2003. Optimization of a higher throughput microsomal stability screening assay for profiling drug discovery candidates. J Biomol Screen 8:453-462). Briefly, the compound (1.0 and 10.0 μM) was preincubated for 10 min at 37° C. in potassium phosphate buffer (pH 7.4) together with 0.5 mg/mL mouse or human hepatic microsomes (Xenotech, Kansas City). The cofactor mixture comprising NADP, G6P, and G6P-DH (BD Biosciences) was added, and aliquots were taken after 0 and 60 min. Samples were analyzed on an Acquity UPLC, coupled with a sample organizer, and interfaced with a triple quadrupole ABI 4000 LC/MS/MS using the methodology described above. The percentage of the compound remaining after a 60 min incubation period was calculated according the following equation: [(area at time 60 min)/(area at time 0 min)]×100%.
# [4] = system: Fa2N-4 immortalized human hepatocytes; test: Cell viability with ATP-lite (hepatic toxicity); format: cell-based
# Procedure: Hepatic toxicity of compounds was determined with Fa2N-4 immortalized human hepatocytes using the ATP-lite 1-step assay (Perkin Elmer). assay according to the manufacturer's instructions. Fa2N-4 cells (XenoTech, Kansas City, Kans.) were seeded at 50,000 cells/well, and incubated with a range of concentrations of the test compound (0.01 μM-50 μM) in MFE support, media for 24 hrs at 37° C., 5% CO2. At the end of the experiment, cell viability was determined by cellular ATP levels using the ATP-lite kit according to the manufacturer's instructions Luminescence was measured on the Infinite M200 plate reader (Tecan US).
# [5] = system: adrenergic receptors (α1a, α1B, α1D, α2A); test: Panlabs panel, adrenergic receptors; format: binding; conditions: @ 10 μM
# From the text: However, these activities in in vitro binding assays may not translate into functional modulation of these receptors.
# [6] = PK in mouse after iv and ip dose; format: in vivo
# [7] = Brain levels in mouse after ip dosing; format: in vivo
# T1 sequence (P30989 whole entry): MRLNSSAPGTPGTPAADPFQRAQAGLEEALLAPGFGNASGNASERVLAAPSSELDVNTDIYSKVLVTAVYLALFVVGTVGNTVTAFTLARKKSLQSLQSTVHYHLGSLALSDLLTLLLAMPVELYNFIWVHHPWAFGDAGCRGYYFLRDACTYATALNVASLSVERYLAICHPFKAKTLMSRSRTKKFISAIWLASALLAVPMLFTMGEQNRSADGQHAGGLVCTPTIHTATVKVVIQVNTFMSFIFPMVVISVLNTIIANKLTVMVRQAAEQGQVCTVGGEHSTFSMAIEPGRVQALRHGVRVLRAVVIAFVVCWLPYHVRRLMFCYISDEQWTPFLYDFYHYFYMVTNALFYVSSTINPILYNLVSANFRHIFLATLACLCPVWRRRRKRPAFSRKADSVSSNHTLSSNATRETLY
smiles,measurement,setting,value
"COc1cc2nc(C3CC3)nc(N3CCN(c4ccccc4OC)CC3)c2cc1OC [Compound 315, 2-cyclopropyl-6,7-dimethoxy-4-(4-(2-methoxyphenyl)piperazin-1-yl)quinazoline]",EC50,NTSR1 (NTR1),3.41 µM
same,"fraction unbound at 4 h, 1 μM",[1]; 1 μM,0.0055
same,"fraction unbound at 4 h, 10 μM",[1]; 10 μM,0.0078
same,plasma protein binding,plasma proteins,highly plasma protein bound
same,Plasma Stability (% Remaining at 3 hrs),[2],99.55%
same,Hepatic Microsome Stability (% Remaining at 1 hr),[3],1.36%
same,metabolism in vitro with liver homogenates,[3],metabolized rapidly
same,window for toxicity towards human hepatocytes,[4],> 15 fold
same,CC50,"[4]; 24 hrs, read-out: Toxicity Towards Fa2N-4 Immortalized Human Hepatocytes LC50",30 µM and 29.6 µM
same,"activity across adrenergic receptors α1a, α1B, α1D, α2A",[5],63-100%
same,Vdss,[6]; 2 mg/kg iv dose,6.22 L/kg
same,t1/2,[6]; 2 mg/kg iv dose,1.93 h
same,AUC,[6]; 10 mg/kg ip dose,1223 ng·h/mL
same,Cmax,[6]; 10 mg/kg ip dose,763 ng/mL
same,t1/2,[6]; 10 mg/kg ip dose,2.58 h
same,PK properties in mouse,[6]; in vivo,modest PK properties
same,brain/plasma,[7]; 1 hr after 10 mg/kg ip dose,1.3
same,brain/plasma,[7]; 1 hr after 30 mg/kg ip dose,1.6

# From patent US9868707B2, “Small molecule agonists of neurotensin receptor 1” (SANFORD-BURNHAM MEDICAL RESEARCH INSTITUTE, priority 2012, dated 2018)
